Results taken from patent US20110064833A1, “SYNERGISTIC HERBAL COMPOSITION AND PROCESS OF PREPARATION THEREOF” (priority 2007, published 2011).

System: streptozotocin diabetic rats
Test: In-vivo efficacy screening in streptozotocin diabetic Sprague Dawley rats, 35 days oral gavage
Excerpt: The number of animals per dose group is five and is kept for examination and acclimatization for a week period at the start of the study. The total number of dose groups is six along with vehicle control. The different groups are G1-Vehicle control, G2-Diabetic control, G-3 Diabetic animals treated with Pioglitazone (Standard anti-diabetic drug). […] Blood is collection under CO2 anesthesia by retro orbital (ROP) plexus method and FBG analysis. Rats are fed with 5% glucose water for two days before STZ injection and are fasted for 12 hours before administering streptozotocin. The rats are injected intra-peritoneal with 45 mg/kg-body weight of streptozotocin in a citrate buffer ph: 4.5 and allowed for week recovery. Rats are fasted for 12 hours after 7th day of STZ injection and blood collected in heparin as the anti-coagulant, under CO2 anesthesia and analyzed for FBG. Rats that have the range of FBG beyond 250 mg/dl and above are considered for the study.
Selection, randomization and grouping of the animals into different treatment groups with the FBG range of 250 mg/dl is undertaken as above. […] The dosage volume administered to individual rat was adjusted according to its most recently recorded body weights. […] All signs of ill health, together with any behavioral changes or reaction to treatment are recorded for individual animals. […]

For `COc1ccc(Cl)cc1C(=O)NCCc1ccc(S(=O)(=O)NC(=O)NC2CCCCC2)cc1` [glebenclamide], the “increase in fasting blood glucose from baseline at the end of 35 days” value (glebenclamide, dose not stated) was “about 110%”.
`CCc1ccc(CCOc2ccc(CC3SC(=O)NC3=O)cc2)nc1` (centres unmarked) [pioglitazone] was tested, and the “increase in fasting blood glucose from baseline at the end of 35 days” value (pioglitazone 20 mg/kg-body weight) was “about 98%”.
